# ChEMBL document CHEMBL5223073, “Andrographolide suppresses cisplatin-induced endothelial hyperpermeability through activation of PI3K/Akt and eNOS -derived nitric oxide” (Bioorg Med Chem, 2020)
# Calls of active or inactive are those of the source. No cut-off for these calls is given here.
# Tests used:
# HUVEC [1] = test: Induction of NO production in cisplatin-treated HUVEC cells assessed as increase in fluorescence signal at 30 uM measured after 4 to 15 mins by DAF-FM dye based analysis; format: functional, cell-based; details: Homo sapiens, time 4-15 min
# [2] = target: T1, Nitric oxide synthase 3 (Homo sapiens) (UniProt P29474); test: Activation of eNOS activity in cisplatin-treated HUVEC cells assessed as increase in eNOS phosphorylation at Ser1177 residue at 30 uM preincubated with PI3K inhibitor, wortmannin followed by compound addition measured after 5 to 240 mins by Western blot analysis; format: cell-based; details: time 5-240 min
# T1 sequence (whole entry): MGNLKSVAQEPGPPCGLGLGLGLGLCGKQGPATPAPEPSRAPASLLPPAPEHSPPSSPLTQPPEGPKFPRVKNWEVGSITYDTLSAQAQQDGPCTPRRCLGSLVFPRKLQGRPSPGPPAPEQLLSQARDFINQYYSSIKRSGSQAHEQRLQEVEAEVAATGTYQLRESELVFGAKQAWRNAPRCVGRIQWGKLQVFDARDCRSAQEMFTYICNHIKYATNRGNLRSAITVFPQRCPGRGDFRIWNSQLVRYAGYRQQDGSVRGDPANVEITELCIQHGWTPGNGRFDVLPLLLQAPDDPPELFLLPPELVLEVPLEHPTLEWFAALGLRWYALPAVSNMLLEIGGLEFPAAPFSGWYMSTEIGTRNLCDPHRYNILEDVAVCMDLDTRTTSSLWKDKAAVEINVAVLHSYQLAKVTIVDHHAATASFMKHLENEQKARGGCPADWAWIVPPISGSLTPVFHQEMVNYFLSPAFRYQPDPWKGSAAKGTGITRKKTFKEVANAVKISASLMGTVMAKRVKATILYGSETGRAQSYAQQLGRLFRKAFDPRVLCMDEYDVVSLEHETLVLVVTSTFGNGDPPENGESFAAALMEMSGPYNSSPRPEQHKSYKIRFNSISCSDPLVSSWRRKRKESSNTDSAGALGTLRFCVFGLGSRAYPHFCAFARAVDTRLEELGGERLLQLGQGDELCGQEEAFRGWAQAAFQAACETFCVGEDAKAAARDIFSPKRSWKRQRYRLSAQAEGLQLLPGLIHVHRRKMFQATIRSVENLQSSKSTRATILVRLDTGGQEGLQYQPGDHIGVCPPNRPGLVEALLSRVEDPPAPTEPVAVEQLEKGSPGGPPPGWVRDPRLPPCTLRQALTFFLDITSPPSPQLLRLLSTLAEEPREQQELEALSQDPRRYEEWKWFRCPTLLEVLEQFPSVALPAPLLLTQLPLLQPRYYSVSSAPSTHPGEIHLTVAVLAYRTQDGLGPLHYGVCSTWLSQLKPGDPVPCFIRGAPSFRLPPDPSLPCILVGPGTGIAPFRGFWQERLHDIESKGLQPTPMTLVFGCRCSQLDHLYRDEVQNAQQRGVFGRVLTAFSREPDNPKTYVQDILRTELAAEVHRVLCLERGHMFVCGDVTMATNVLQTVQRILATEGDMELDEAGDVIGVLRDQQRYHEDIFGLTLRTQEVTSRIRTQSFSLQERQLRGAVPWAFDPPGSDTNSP
# HUVEC [3] = test: Activation of PI3K in cisplatin-treated HUVEC cells assessed as increase PIP3 formation pretreated for 30 mins followed by cisplatin addition by immunoprecipitation analysis; format: cell-based; details: Homo sapiens, filed as activator, dose 10-30 µM
# HUVEC [4] = test: Activation of PI3K in cisplatin-treated HUVEC cells assessed as increase PIP3 formation at 30 uM pretreated for 30 mins in presence of PI3K inhibitor, wortmannin followed by cisplatin addition by immunoprecipitation analysis; format: cell-based; details: Homo sapiens
# HUVEC [5] = test: Activation of AKT in cisplatin-treated HUVEC cells assessed as increase in AKT phosphorylation at 30 uM measured after 5 to 240 mins by Western blot analysis; format: cell-based; details: Homo sapiens, filed as activator, time 5-240 min
# HUVEC [6] = test: Activation of AKT in cisplatin-treated HUVEC cells assessed as increase in AKT phosphorylation at 30 uM pretreated with PI3K inhibitor, wortmannin followed by compound addition and measured after 240 mins by Western blot analysis; format: cell-based; details: Homo sapiens
# [7] = target: T1, Nitric oxide synthase 3 (Homo sapiens); test: Activation of eNOS activity in cisplatin-treated HUVEC cells assessed as increase in intracellular cGMP level incubated for 15 mins by radioimmunoassay; format: cell-based; details: filed as activator, dose 10-30 µM
# [8] = target: Transcription factor p65 (Homo sapiens) (UniProt Q04206); test: Inhibition of cisplatin-induced phosphorylation of p65 subunit at Ser536 residue in HUVEC cells at 30 uM preincubated with PI3K inhibitor, wortmannin followed by compound addition and further incubated for 1 hr by Western blot analysis; format: cell-based
# Chain of Transcription factor p65 (Homo sapiens) (Q04206 whole entry): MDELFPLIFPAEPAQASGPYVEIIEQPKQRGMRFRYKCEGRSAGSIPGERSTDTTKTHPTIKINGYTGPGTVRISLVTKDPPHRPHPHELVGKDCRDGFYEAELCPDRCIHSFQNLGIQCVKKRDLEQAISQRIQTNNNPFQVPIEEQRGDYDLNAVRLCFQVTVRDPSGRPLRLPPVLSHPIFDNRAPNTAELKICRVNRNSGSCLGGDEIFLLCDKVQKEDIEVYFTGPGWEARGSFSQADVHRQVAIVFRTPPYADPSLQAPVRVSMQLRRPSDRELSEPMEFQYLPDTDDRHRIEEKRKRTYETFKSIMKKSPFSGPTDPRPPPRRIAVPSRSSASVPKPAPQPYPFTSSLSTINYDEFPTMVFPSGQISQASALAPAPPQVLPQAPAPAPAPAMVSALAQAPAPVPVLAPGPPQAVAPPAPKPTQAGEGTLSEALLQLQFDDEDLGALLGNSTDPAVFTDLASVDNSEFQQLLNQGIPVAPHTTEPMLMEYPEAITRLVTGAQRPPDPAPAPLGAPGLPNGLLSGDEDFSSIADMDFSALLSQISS
# [9] = target: Transcription factor p65 (Homo sapiens) (UniProt Q04206); test: Inhibition of cisplatin-induced phosphorylation of p65 subunit at Ser536 residue in HUVEC cells at 30 uM preincubated with eNOS inhibitor, N(G)-nitro-L-arginine methyl ester followed by compound addition and further incubated for 1 hr by Western blot analysis; format: cell-based
# HUVEC [10] = test: Downregulation of cisplatin-induced ICAM1 protein expression in HUVEC cells at 30 uM preincubated with eNOS inhibitor, N(G)-nitro-L-arginine methyl ester followed by compound addition and further incubated for 1 hr by Western blot analysis; format: functional, cell-based; details: Homo sapiens
# HUVEC [11] = test: Inhibition of cisplatin-induced TRPC1 phosphorylation in [32P] orthophosphate labeled HUVEC cells at 30 uM incubated for 15 mins in presence of cisplatin by Western blot analysis; format: cell-based; details: Homo sapiens
# HUVEC [12] = test: Inhibition of cisplatin-induced store operated Ca2+ release in HUVEC cells at 30 uM preincubated with compound followed by cisplatin stimulation by Fura-2 AM staining based calcium influx assay; format: functional, cell-based; details: Homo sapiens
# HUVEC [13] = test: Inhibition of cisplatin-induced store operated Ca2+ release in HUVEC cells at 30 uM preincubated with compound in presence of PI3K inhibitor, wortmannin followed by cisplatin stimulation by Fura-2 AM staining based calcium influx assay; format: functional, cell-based; details: Homo sapiens
# HUVEC [14] = test: Improvement in cisplatin-induced endothelial monolayer integrity in HUVEC cells assessed as reduction in transmembrane movement of albumin at 30 uM preincubated with compound in presence of PI3K inhibitor, wortmannin followed by cisplatin stimulation and measured after 2 hrs; format: functional, cell-based; details: Homo sapiens
# HUVEC [15] = test: Improvement in cisplatin-induced endothelial monolayer integrity in HUVEC cells assessed as reduction in transmembrane movement of albumin at 30 uM preincubated with compound in presence of eNOS inhibitor, N(G)-nitro-L-arginine methyl ester followed by cisplatin stimulation and measured after 2 hrs; format: functional, cell-based; details: Homo sapiens
smiles,measurement,setting,value
C=C1CC[C@@H]2[C@](C)(CO)[C@H](O)CC[C@@]2(C)[C@@H]1C/C=C1/C(=O)OC[C@H]1O [ANDROGRAPHOLIDE],Activity,HUVEC [1],Active
same,Activity,[2],inactive
same,Activity,HUVEC [3],Dose-Dependent Effect
same,Activity,HUVEC [4],inactive
same,Activity,HUVEC [5],Active
same,Activity,HUVEC [6],inactive
same,Activity,[7],Dose-Dependent Effect
same,inhibition,[8],inactive
same,inhibition,[9],inactive
same,Activity,HUVEC [10],inactive
same,inhibition,HUVEC [11],Active
same,inhibition,HUVEC [12],Active
same,inhibition,HUVEC [13],inactive
same,Activity,HUVEC [14],inactive
same,Activity,HUVEC [15],inactive
